Paper PMC3867298 (Clinical cancer research : an official journal of the …, 2010)
Read-outs that look alike come from different tables or passages of the source. Marks after values point to notes of the source that are not given here.

Experiments:
[1] = system: patients with advanced solid tumors
[2] = system: H929 human plasmacytoma xenografts; details: vs vehicle; cited from earlier work
[3] = system: MDA-MB-231 breast cancer xenograft; details: MDA-MB-231 xenograft, with reduced tumor vascularization (CD31); cited from earlier work
[4] = cohort 1, 60 mg/m^2, 7 patients
[5] = cohort 2, 80 mg/m^2, 4 patients
[6] = cohort 3, 120 mg/m^2, 3 patients
[7] = cohort 4, 200 mg/m^2, 7 patients
[8] = cohort 5, 160 mg/m^2, 8 patients
[9] = expansion, 160 mg/m^2, 38 patients
[10] = treatment-related, worst grade per patient, all cycles, N = 67

SMILES: Cc1cc(Nc2cc(N3CCN(C)CC3)nc(/C=C/c3ccccc3)n2)n[nH]1 [ENMD-2076]
- Adrenal insufficiency ([1]; all patients): not observed
- Patients requiring dose reduction due to toxicity ([1]; at the MTD of 160 mg/m^2): 33%
- Patients with hypothyroidism ([1]; both in the expanded 160 mg/m^2 cohort): 2 patients
- No. of patients with DLT (cycle 1) [1, 4]: 1 ^†
- No. of patients with dose delays [1, 4]: 2 (29%)
- No. patients with dose reductions [1, 4]: 1 (14%)
- No. of patients with DLT (cycle 1) [1, 5]: 0
- No. of patients with dose delays [1, 5]: 3 (75%)
- No. patients with dose reductions [1, 5]: 1 (25%)
- No. of patients with DLT (cycle 1) [1, 6]: 0
- No. of patients with dose delays [1, 6]: 1 (33%)
- No. patients with dose reductions [1, 6]: 0
- No. of patients with dose delays [1, 7]: 7 (100%)
- No. patients with dose reductions [1, 7]: 3 (43%)
- No. of patients with dose delays [1, 8]: 3 (38%)
- No. patients with dose reductions [1, 8]: 1 (13%)
- Patients with fatigue of grade 3 to 4 severity ([1]; expanded 160 mg/m^2 cohort): 2 patients
- Patients with tooth discoloration ([1]; expanded 160 mg/m^2 cohort): Four
- Patients with grade 3/4 neutropenia ([1]; expanded 160 mg/m^2 cohort, 2 of 38): 5%
- Patients with grade 1/2 neutropenia ([1]; expanded 160 mg/m^2 cohort, 3 of 38): 8%
- Patients with fatigue ([1]; expanded 160 mg/m^2 cohort, 12/38): 32%
- No. of patients with DLT (met the definition of DLT) [1, 9]: 12 ^§
- No. of patients with dose delays [1, 9]: 24 (63%)
- No. patients with dose reductions [1, 9]: 14 (37%)
- Patients in whom hypertension resulted in dose delay or reduction ([1]; in vivo): 16%
- Recommended phase 2 dose ([1]; oral once daily, continuous dosing): 160 mg/m^2
- Maximum tolerated dose (MTD) ([1]; oral, continuous once daily dosing): 160 mg/m^2
- Median time to onset of hypertension following initial dosing ([1]; range 2–60 days): 14 days
- Patients with hypertension of grade 3/4 severity ([1]; total patients): 21%
- Anorexia, any grade [1, 10]: 24%
- Anorexia, grade 3, No. of patients [1, 10]: 0
- Anorexia, grade 4, No. of patients [1, 10]: 0
- Constipation, any grade [1, 10]: 15%
- Constipation, any grade, No. of patients [1, 10]: 10
- Constipation, grade 3, No. of patients [1, 10]: 0
- Constipation, grade 4, No. of patients [1, 10]: 0
- Dehydration, any grade, No. of patients [1, 10]: 12
- Dehydration, grade 3 [1, 10]: 1%
- Dehydration, grade 3, No. of patients [1, 10]: 1
- Dehydration, grade 4, No. of patients [1, 10]: 0
- Diarrhea, any grade, No. of patients [1, 10]: 17
- Diarrhea, grade 3 [1, 10]: 3%
- Diarrhea, grade 3, No. of patients [1, 10]: 2
- Diarrhea, grade 4, No. of patients [1, 10]: 0
- Dysgeusia, any grade [1, 10]: 10%
- Dysgeusia, any grade, No. of patients [1, 10]: 7
- Dysgeusia, grade 3, No. of patients [1, 10]: 0
- Dysgeusia, grade 4, No. of patients [1, 10]: 0
- Dyspnea, any grade, No. of patients [1, 10]: 8
- Dyspnea, grade 3 [1, 10]: 4%
- Dyspnea, grade 3, No. of patients [1, 10]: 3
- Dyspnea, grade 4, No. of patients [1, 10]: 0
- Fatigue, any grade [1, 10]: 31%
- Fatigue, any grade, No. of patients [1, 10]: 21
- Fatigue, grade 3 [1, 10]: 3%
- Fatigue, grade 3, No. of patients [1, 10]: 2
- Fatigue, grade 4, No. of patients [1, 10]: 0
- Glossodynia, any grade, No. of patients [1, 10]: 11
- Glossodynia, grade 3, No. of patients [1, 10]: 0
- Glossodynia, grade 4, No. of patients [1, 10]: 0
- Hypertension, any grade, No. of patients [1, 10]: 37
- Hypertension, grade 3, No. of patients [1, 10]: 12
- Hypertension, grade 4 [1, 10]: 3%
- Hypertension, grade 4, No. of patients [1, 10]: 2
- Mucositis, any grade [1, 10]: 15%
- Mucositis, any grade, No. of patients [1, 10]: 10
- Mucositis, grade 3, No. of patients [1, 10]: 0
- Mucositis, grade 4, No. of patients [1, 10]: 0
- Nausea/vomiting, any grade, No. of patients [1, 10]: 26
- Nausea/vomiting, grade 3, No. of patients [1, 10]: 0
- Nausea/vomiting, grade 4, No. of patients [1, 10]: 0
- Patients reporting related adverse events, grade 3 [1, 10]: 28%
- Patients reporting related adverse events, grade 3, No. of patients [1, 10]: 19
- Patients reporting related adverse events, grade 4 [1, 10]: 9%
- Patients reporting related adverse events, grade 4, No. of patients [1, 10]: 6
- Tumor growth [2]: Dose-dependent inhibition of tumor growth
- Tumor response [3]: regressions
